Data on 18 compounds can be found in PubChem BioAssay AID210 (DTP/NCI, 2004).

The subject of this test is CD2F1 mice, ip Colon 26 adenocarcinoma, median survival T/C. As to the kind of experiment: NCI In Vivo Anticancer Drug Screen. Data for tumor model Colon 26 Adenocarcinoma (intraperitoneal) in CD2F1 (CDF1) mice. The following applies: endpoint: median survival time, higher = longer survival. How it is done: The antitumor activity of compounds was measured in mice bearing transplantable tumors. Survival or tumor size were measured and the results are expressed as the measurement made in the treated group (T) divided by the measurement made in the vehicle treated control group (C). The tumor model used in this assay is Colon 26 Adenocarcinoma (intraperitoneal) in CD2F1 (CDF1) mice

The mark [1] stands for this setting: dose: 50.0 mg/kg/injection, schedule: Q04DX002 (ip), vehicle: Klucel (hydroxypropylcellulose) (HPC).
Where [2] appears, read: dose: 100.0 mg/kg/injection, schedule: Q04DX002 (ip), vehicle: Klucel (hydroxypropylcellulose) (HPC).
The mark [3] stands for this setting: dose: 200.0 mg/kg/injection, schedule: Q04DX002 (ip), vehicle: Klucel (hydroxypropylcellulose) (HPC).
[4] abbreviates: dose: 12.5 mg/kg/injection, schedule: Q04DX003 (ip), vehicle: saline with Tween-80.
Where [5] appears, read: dose: 25.0 mg/kg/injection, schedule: Q04DX003 (ip), vehicle: saline with Tween-80.
Where [6] appears, read: dose: 50.0 mg/kg/injection, schedule: Q04DX003 (ip), vehicle: saline with Tween-80.
Where [7] appears, read: dose: 100.0 mg/kg/injection, schedule: Q04DX003 (ip), vehicle: saline with Tween-80.
The mark [8] stands for this setting: dose: 200.0 mg/kg/injection, schedule: Q04DX003 (ip), vehicle: saline with Tween-80.
[9] abbreviates: dose: 16.0 mg/kg/injection, schedule: Q04DX003 (ip), vehicle: Klucel (hydroxypropylcellulose) (HPC).
Where [10] appears, read: dose: 2.0 mg/kg/injection, schedule: Q04DX003 (ip), vehicle: Klucel (hydroxypropylcellulose) (HPC).

Molecules are shown by their SMILES. “And” between values parts separate entries of the source, which are not always exact repeats. Equal entries are not always repeated. Toxic doses and inconclusive results are not listed.

On to `C[C@]12CC[C@@H]3c4ccc(O)cc4CC[C@H]3[C@@H]1CC[C@@H]2O`, for which the T/C was 103 % of control (dose: 6.25 mg/kg/injection, schedule: Q04DX002 (ip), vehicle: Klucel (hydroxypropylcellulose) (HPC)); 95 % of control (dose: 12.5 mg/kg/injection, schedule: Q04DX002 (ip), vehicle: Klucel (hydroxypropylcellulose) (HPC)); 94 % of control (dose: 25.0 mg/kg/injection, schedule: Q04DX002 (ip), vehicle: Klucel (hydroxypropylcellulose) (HPC)); 103 % of control under setting [1]; 100 % of control under setting [2]; 98 % of control under setting [3].
Consider `O=Cc1ccc(C(Cl)(Cl)Cl)cc1`, for which the T/C was 103 % of control and 107 % of control under setting [4]; 106 % of control and 109 % of control under setting [5]; 114 % of control and 98 % of control under setting [6]; 96 % of control under setting [7]; 98 % of control under setting [8]; 103 % of control (dose: 400.0 mg/kg/injection, schedule: Q04DX003 (ip), vehicle: saline with Tween-80).
Turning to `Nc1ncnc2c1ncn2C1OC(CO)CC1O` (centres undefined), the T/C reads like this: (dose: 37.5 mg/kg/injection, schedule: Q04DX002 (ip), vehicle: Klucel (hydroxypropylcellulose) (HPC)) 101 % of control; (dose: 75.0 mg/kg/injection, schedule: Q04DX002 (ip), vehicle: Klucel (hydroxypropylcellulose) (HPC)) 110 % of control; (dose: 150.0 mg/kg/injection, schedule: Q04DX002 (ip), vehicle: Klucel (hydroxypropylcellulose) (HPC)) 93 % of control.
`O=C([O][Hg][CH2]C1COC([CH2][Hg][O]C(=O)c2ccccc2)CO1)c1ccccc1` (centres undefined): the T/C is 89 % of control (dose: 37.5 mg/kg/injection, schedule: Q04DX003 (ip), vehicle: saline with Tween-80) and 94 % of control (dose: 75.0 mg/kg/injection, schedule: Q04DX003 (ip), vehicle: saline with Tween-80).
For the compound `COC1=CC(=O)N(C(=O)C2CSC(C(CO)NC(=O)c3csc(/C=N/O)n3)=N2)C1` (centres undefined), the T/C under setting [1] is 93 % of control; the T/C under setting [2] is 105 % of control; the T/C under setting [3] was 101 % of control; the T/C (dose: 400.0 mg/kg/injection, schedule: Q04DX002 (ip), vehicle: Klucel (hydroxypropylcellulose) (HPC)) is 105 % of control.
With `NNC(=O)c1ccncc1`, the T/C was 103 % of control (dose: 72.0 mg/kg/injection, schedule: Q04DX002 (ip), vehicle: saline) and 102 % of control (dose: 144.0 mg/kg/injection, schedule: Q04DX002 (ip), vehicle: saline).
For `CC(C)NCC(O)COc1cccc2ccccc12` (centres undefined), the T/C is, setting by setting: (dose: 4.0 mg/kg/injection, schedule: Q04DX003 (ip), vehicle: Klucel (hydroxypropylcellulose) (HPC)) 109 % of control; (dose: 8.0 mg/kg/injection, schedule: Q04DX003 (ip), vehicle: Klucel (hydroxypropylcellulose) (HPC)) 102 % of control; under setting [9], 107 % of control; (dose: 32.0 mg/kg/injection, schedule: Q04DX003 (ip), vehicle: Klucel (hydroxypropylcellulose) (HPC)) 101 % of control; (dose: 64.0 mg/kg/injection, schedule: Q04DX003 (ip), vehicle: Klucel (hydroxypropylcellulose) (HPC)) 107 % of control.
For the compound `CC(=O)OC1C2(CC3N4C(=O)C5(CO)SSC4(CC31O)C(=O)N5C)OC(C)C(C)(C)C2=O` (centres undefined), the T/C by setting is: (dose: 1.25 mg/kg/injection, schedule: Q04DX002 (ip), vehicle: saline) 97 % of control; (dose: 2.5 mg/kg/injection, schedule: Q04DX002 (ip), vehicle: saline) 108 % of control; (dose: 5.0 mg/kg/injection, schedule: Q04DX002 (ip), vehicle: saline) 87 % of control.
As for `NC(=O)c1[nH]nc(C2OC(CO)C(O)C2O)c1O` (centres undefined), the T/C was 115 % of control (dose: 2.59 mg/kg/injection, schedule: Q04DX003 (ip), vehicle: saline); 107 % of control (dose: 4.32 mg/kg/injection, schedule: Q04DX003 (ip), vehicle: saline); 123 % of control (dose: 7.2 mg/kg/injection, schedule: Q04DX003 (ip), vehicle: saline); 118 % of control (dose: 12.0 mg/kg/injection, schedule: Q04DX003 (ip), vehicle: saline); 90 % of control (dose: 20.0 mg/kg/injection, schedule: Q04DX003 (ip), vehicle: saline).
As for `O=c1oc2cc(N=Cc3ccccc3Cl)ccc2c2ccccc12`, the T/C is 100 % of control (dose: 50.0 mg/kg/injection, schedule: Q04DX003 (ip), vehicle: Klucel (hydroxypropylcellulose) (HPC)); 97 % of control (dose: 100.0 mg/kg/injection, schedule: Q04DX003 (ip), vehicle: Klucel (hydroxypropylcellulose) (HPC)); 98 % of control (dose: 200.0 mg/kg/injection, schedule: Q04DX003 (ip), vehicle: Klucel (hydroxypropylcellulose) (HPC)); 98 % of control (dose: 400.0 mg/kg/injection, schedule: Q04DX003 (ip), vehicle: Klucel (hydroxypropylcellulose) (HPC)).
Consider `O=P1(NCCCl)OCCCN1CCCl` (centres undefined), for which the T/C by setting is: (dose: 12.5 mg/kg/injection, schedule: Q04DX003 (ip), vehicle: water) 106 % of control; (dose: 25.0 mg/kg/injection, schedule: Q04DX003 (ip), vehicle: water) 113 % of control; (dose: 200.0 mg/kg/injection, schedule: Q04DX003 (ip), vehicle: water) 188 % of control.
Turning to `CCc1ncnc2cc(OCC3CO3)c(OC)cc12` (centres undefined), the T/C (dose: 25.0 mg/kg/injection, schedule: Q03DX002 (iv), vehicle: saline) is 90 % of control; the T/C (dose: 40.0 mg/kg/injection, schedule: Q03DX002 (ip), vehicle: saline) is 97 % of control; the T/C (dose: 40.0 mg/kg/injection, schedule: Q03DX002 (sc), vehicle: saline) is 86 % of control; the T/C (dose: 60.0 mg/kg/injection, schedule: Q03DX002 (ip), vehicle: saline) was 114 % of control; the T/C (dose: 60.0 mg/kg/injection, schedule: Q03DX002 (iv), vehicle: saline) was 95 % of control; the T/C (dose: 60.0 mg/kg/injection, schedule: Q03DX002 (sc), vehicle: saline) was 86 % of control.
For `CC(=O)OCC1(C)C(O)CCC2(C)C1CCC1CC3CC12CCC3(O)CO` (centres undefined), the T/C is 103 % of control (dose: 12.5 mg/kg/injection, schedule: Q04DX002 (ip), vehicle: distilled water + Tween-80); 111 % of control (dose: 25.0 mg/kg/injection, schedule: Q04DX002 (ip), vehicle: distilled water + Tween-80); 95 % of control (dose: 50.0 mg/kg/injection, schedule: Q04DX002 (ip), vehicle: distilled water + Tween-80); 104 % of control (dose: 100.0 mg/kg/injection, schedule: Q04DX002 (ip), vehicle: distilled water + Tween-80).
Regarding `CC1(CO)C(O)CCC2(C)C1CCC1CC3CC12CCC3(O)CO` (centres undefined), the T/C (dose: 25.0 mg/kg/injection, schedule: Q01DX009 (ip), vehicle: saline with Tween-80) was 167 % of control; the T/C (dose: 50.0 mg/kg/injection, schedule: Q04DX003 (oral), vehicle: saline with Tween-80) was 105 % of control and 106 % of control and 113 % of control; the T/C (dose: 100.0 mg/kg/injection, schedule: Q04DX003 (oral), vehicle: saline with Tween-80) was 101 % of control and 119 % of control and 100 % of control; the T/C (dose: 600.0 mg/kg/injection, schedule: Q04DX003 (ip), vehicle: saline with Tween-80) was 100 % of control; the T/C (dose: 1600.0 mg/kg/injection, schedule: Q04DX003 (oral), vehicle: saline with Tween-80) is 106 % of control.
In the case of `COc1ccc2cc1Oc1ccc(cc1)C[C@H]1c3cc(c(OC)cc3CCN1C)Oc1c(OC)c(OC)cc3c1[C@H](C2)N(C)CC3`, the T/C is 92 % of control under setting [4]; 101 % of control under setting [5]; 92 % of control under setting [6]; 94 % of control under setting [7]; 101 % of control under setting [8].
For the compound `C1CN(P2(N3CC3)=NP(N3CC3)(N3CC3)=NP(N3CC3)(N3CC3)=N2)CCO1` (centres undefined), the T/C is, setting by setting: (dose: 6.25 mg/kg/injection, schedule: Q04DX003 (ip), vehicle: saline) 92 % of control; (dose: 12.5 mg/kg/injection, schedule: Q04DX003 (ip), vehicle: saline) 121 % of control; (dose: 50.0 mg/kg/injection, schedule: Q04DX003 (ip), vehicle: saline) 163 % of control.
In the case of `N/C(=N\O)c1cn(C2OC(CO)C(O)C2O)c2ncnc(N)c12` (centres undefined), the T/C under setting [10] is 116 % of control and the T/C under setting [9] was 167 % of control.
For `NC(=O)c1cn(C2OC(CO)C(O)C2O)c2ncnc(N)c12` (centres undefined), the T/C under setting [10] is 156 % of control.
